# Measured values: US6066616A, “Somatostatin analogue composition and use in treating breast cancer” (Novartis AG, priority 1987, dated 2000)
# Assay: tolerated dose of octreotide
# Settings: in vivo
# Protocol: Thus for octreotide, GI tumours may be treated initially with 0.05 mg once or twice a day by sub-cutaneous injection. Dosage can be increased to 0.2 mg three times daily. For acromegaly daily doses of from 100 to 300 μg s.c. may be used. Octreotide is tolerated at least to 1 mg.
structure (smiles),measurement,value
"C[C@@H](O)[C@@H]1NC(=O)[C@H](CCCCN)NC(=O)[C@@H](Cc2c[nH]c3ccccc23)NC(=O)[C@H](Cc2ccccc2)NC(=O)[C@@H](NC(=O)[C@H](N)Cc2ccccc2)CSSC[C@@H](C(=O)N[C@H](CO)[C@@H](C)O)NC1=O [Octreotide, octreotide]",tolerated dose,≥ 1 mg
